Where two headings read alike, the source gives them in different places.
Target: T1, Nanoluciferase-BRD9 fusion protein (3×FLAG-NLuc-BRD9) in SYO-1 cells (Homo sapiens, UniProt Q9H8M2)
T1 construct: expressed in transfected cells; host or cells: SYO-1
T1 sequence (Q9H8M2 1-597): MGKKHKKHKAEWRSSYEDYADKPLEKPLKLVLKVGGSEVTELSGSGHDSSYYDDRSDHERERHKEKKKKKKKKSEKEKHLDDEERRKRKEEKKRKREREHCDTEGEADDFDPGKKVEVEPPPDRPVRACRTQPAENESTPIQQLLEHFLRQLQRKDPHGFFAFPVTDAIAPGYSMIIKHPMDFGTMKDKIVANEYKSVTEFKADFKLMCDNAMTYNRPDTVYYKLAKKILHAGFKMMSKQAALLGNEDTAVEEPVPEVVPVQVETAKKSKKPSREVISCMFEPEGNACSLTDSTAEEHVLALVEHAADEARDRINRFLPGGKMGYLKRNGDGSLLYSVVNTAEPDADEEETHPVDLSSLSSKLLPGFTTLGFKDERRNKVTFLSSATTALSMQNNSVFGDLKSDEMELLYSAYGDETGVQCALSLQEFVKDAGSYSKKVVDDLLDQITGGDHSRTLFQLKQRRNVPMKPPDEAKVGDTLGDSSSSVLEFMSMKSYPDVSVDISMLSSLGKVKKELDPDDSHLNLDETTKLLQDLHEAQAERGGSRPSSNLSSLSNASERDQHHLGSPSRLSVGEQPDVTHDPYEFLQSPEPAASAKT
Assay: SYO1 BRD9 NanoLuc degradation assay
Assay type: cell-based
Conditions: SYO-1 cells expressing 3×FLAG-NLuc-BRD9, 6 hours incubation, 1 μM top dose, read-out: SYO1 BRD9-NanoLuc degradation IC50
Description: Procedure: A stable SYO-1 cell line expressing 3×FLAG-NLuc-BRD9 was generated. On day 0 cells were seeded in 30 μL media into each well of 384-well cell culture plates. The seeding density was 8000 cells/well. On day 1, cells were treated with 30 nL DMSO or 30 nL of 3-fold serially DMSO-diluted compounds (10 points in duplicates with 1 μM as final top dose). Subsequently plates were incubated for 6 hours in a standard tissue culture incubator and equilibrated at room temperature for 15 minutes. Nanoluciferase activity was measured by adding 15 μL of freshly prepared Nano-Glo Luciferase Assay Reagent (Promega N1130), shaking the plates for 10 minutes and reading the bioluminescence using an EnVision reader. • Results: The Inhibition % was calculated using the following formula: % Inhibition=100×(LumHC−LumSample)/(LumHC−LumLC). DMSO treated cells are employed as High Control (HC) and 1 μM of a known BRD9 degrader standard treated cells are employed as Low Control (LC).

| Structure (SMILES) | DC50 (Table 6C) | DC50 (Table 6B) |
| --- | --- | --- |
| COc1cc(-c2cn(C)c(=O)c3cc(C(=O)N[C@@H]4CCN(CCN5CCN(c6ccc7c(c6)C(=O)N(C6CCC(=O)NC6=O)C7)CC5)CC4(F)F)sc23)cc(OC)c1CN(C)C (some centres unmarked) [Compound D166] | < 0.01 µM | – |
| COc1cc(-c2c(C)n(C)c(=O)c3cc(C(=O)NC4CCN(CCN5CCN(c6ccc7c(c6)C(=O)N(C6CCC(=O)NC6=O)C7)CC5)CC4(F)F)sc23)cc(OC)c1CN(C)C (centres unmarked) [Compound D171] | > 0.01 µM | – |
| COc1cc(-c2cn(C)c(=O)c3cc(C(=O)NC4CN(c5ccc6c(c5)CN(C5CCC(=O)NC5=O)C6=O)CC4(F)F)sc23)cc(OC)c1CN(C)C (centres unmarked) [Compound D180] | < 0.01 µM | – |
| COc1cc(-c2cn(C)c(=O)c3cc(C(=O)NCC4CC5CN(CCCN6CCN(c7ccc8c(c7)C(=O)N(C7CCC(=O)NC7=O)C8=O)CC6)CC5C4)sc23)cc(OC)c1CN(C)C (centres unmarked) [Compound D42] | – | < 0.01 µM |
| COc1cc(-c2cn(C)c(=O)c3ccsc23)cc(OC)c1CN1CCC(CN2CCC3(CC2)CC(Oc2ccc4c(c2)C(=O)N(C2CCC(=O)NC2=O)C4=O)C3)CC1 (centres unmarked) [Compound D189] | < 0.01 µM | – |
| COc1cc(-c2cn(C)c(=O)c3sncc23)cc(OC)c1CN1CC(CN2CCC3(CC2)CN(c2ccc4c(c2)C(=O)N(C2CCC(=O)NC2=O)C4)C3)C1 (centres unmarked) [Compound D201] | < 0.01 µM | – |
| COc1cc(-c2cn(C)c(=O)c3cc(C(=O)NC4CCN(C5CCN(c6ccc7c(c6)CN(C6CCC(=O)NC6=O)C7=O)CC5)CC4(F)F)sc23)cc(OC)c1CN(C)C (centres unmarked) [Compound D25] | – | < 0.01 µM |
| COc1cc(-c2cn(C)c(=O)c3ncsc23)cc(OC)c1CN1CC(Oc2ccc3c(c2)C(=O)N(C2CCC(=O)NC2=O)C3)C1 (centres unmarked) [Compound D212] | < 0.01 µM | – |
| Cn1cc(-c2cccc(C(F)(F)F)c2)c2sc(C(=O)NC3CC4(CCN(c5ccc6c(c5)C(=O)N(C5CCC(=O)NC5=O)C6)CC4)C3)cc2c1=O (centres unmarked) [Compound D117] | < 0.01 µM | – |
| COc1cc(-c2cn(C)c(=O)c3ncsc23)cc(OC)c1CN1CCC2(CC1)CN(c1ccc3c(c1)C(=O)N(C1CCC(=O)NC1=O)C3=O)C2 (centres unmarked) [Compound D202] | < 0.01 µM | – |
| COc1cc(-c2cn(C)c(=O)c3cc(C(=O)NC4CCN(C(=O)CN5CCN(c6ccc7c(c6)C(=O)N(C6CCC(=O)NC6=O)C7=O)CC5)CC4)sc23)cc(OC)c1CN(C)C (centres unmarked) [Compound D77] | – | < 0.01 µM |
| COc1cc(-c2cn(C)c(=O)c3cc(C)sc23)cc(OC)c1CN1CCC2(CC1)CN(c1ccc3c(c1)C(=O)N(C1CCC(=O)NC1=O)C3)C2 (centres unmarked) [Compound D132] | < 0.01 µM | – |
| COc1cc(OC)cc(-c2cn(C)c(=O)c3cc(C(=O)NC4CN(c5ccc6c(c5)C(=O)N(C5CCC(=O)NC5=O)C6)C4)sc23)c1 (centres unmarked) [Compound D115] | < 0.01 µM | – |
| COc1cc(-c2cn(C)c(=O)c3cc(C(=O)NC4CCN(CCN5CCN(c6ccc7c(c6)C(=O)N(C6CCC(=O)NC6=O)C7=O)CC5)CC4(F)F)sc23)cc(OC)c1CN(C)C (centres unmarked) [Compound D79] | – | < 0.01 µM |
| COc1cc(-c2cn(C)c(=O)c3ccsc23)cc(OC)c1CN1CCC2(CC1)CN(c1ccc3c(c1)C(=O)N(C1CCC(=O)NC1=O)C3)C2 (centres unmarked) [Compound D186] | < 0.01 µM | – |
| COc1cc(-c2cn(C)c(=O)c3cc(C(=O)NC4CCN(CCN5CCN(c6ccc7c(c6)CN(C6CCC(=O)NC6=O)C7=O)CC5)CC4(F)F)sc23)cc(OC)c1CN(C)C (centres unmarked) [Compound D196] | < 0.01 µM | – |
| COc1cc(OC)cc(-c2cn(C)c(=O)c3cc(C(=O)NC4CCN(c5cccc(OC6CCC(=O)NC6=O)c5)CC4)sc23)c1 (centres unmarked) [Compound D96] | < 0.01 µM | – |
| COc1cc(-c2cn(C)c(=O)c3cc(C(=O)NCC4CC5(CCN(C(=O)CCN6CCN(c7ccc8c(c7)C(=O)N(C7CCC(=O)NC7=O)C8=O)CC6)CC5)C4)sc23)cc(OC)c1CN(C)C (centres unmarked) [Compound D35] | – | < 0.01 µM |
| COc1cc(-c2cn(C)c(=O)c3cc(C(=O)NC4CCN(CCCCCOc5cccc6c5C(=O)N(C5CCC(=O)NC5=O)C6=O)CC4(F)F)sc23)cc(OC)c1CN(C)C (centres unmarked) [Compound D16] | – | < 0.01 µM |
| COCc1cc2c(=O)n(C)cc(-c3cc(OC)c(CN4CCC5(CC4)CN(c4ccc6c(c4)C(=O)N(C4CCC(=O)NC4=O)C6)C5)c(OC)c3)c2s1 (centres unmarked) [Compound D119] | < 0.01 µM | – |
| COc1cc(-c2cn(C)c(=O)c3ccsc23)cc(OC)c1CN1CCN(c2ccc3c(c2)C(=O)N(C2CCC(=O)NC2=O)C3)CC1 (centres unmarked) [Compound D194] | < 0.01 µM | – |
| COc1cc(-c2cn(C)c(=O)c3cc(C#N)sc23)cc(OC)c1CN1CCC(CN2CCC3(CC2)CN(c2ccc4c(c2)C(=O)N(C2CCC(=O)NC2=O)C4)C3)CC1 (centres unmarked) [Compound D101] | < 0.01 µM | – |
| COc1cc(-c2cn(C)c(=O)c3sccc23)cc(OC)c1CN1CCC(CN2CCC3(CC2)CC(Oc2ccc4c(c2)CN(C2CCC(=O)NC2=O)C4=O)C3)CC1 (centres unmarked) [Compound D199] | < 0.01 µM | – |
| COc1cc(-c2cn(C)c(=O)c3ccsc23)cc(OC)c1CN1CCC(CN2CCC3(CC2)CN(c2ccc4c(c2)C(=O)N(C2CCC(=O)NC2=O)C4=O)C3)CC1 (centres unmarked) [Compound D185] | < 0.01 µM | – |
| COc1cc(-c2cn(C)c(=O)c3cc(C(=O)NC4CCN(CCC5CCN(c6ccc7c(c6)CN(C6CCC(=O)NC6=O)C7=O)CC5)CC4(F)F)sc23)cc(OC)c1CN(C)C (centres unmarked) [Compound D102] | < 0.01 µM | – |

The next lines start with the values.

| DC50 (Table 6C) | DC50 (Table 6B) | Structure (SMILES) |
| --- | --- | --- |
| < 0.01 µM | – | COc1cc2c(=O)n(C)cc(-c3cc(OC)c(CN4CCC(CN5CCC6(CC5)CN(c5ccc7c(c5)C(=O)N(C5CCC(=O)NC5=O)C7)C6)CC4)c(OC)c3)c2s1 (centres unmarked) [Compound D100] |
| – | > 0.01 µM | COc1cc(-c2cn(C)c(=O)c3cc(C(=O)NC4CC5CC4CN5CCCN4CCN(c5ccc6c(c5)C(=O)N(C5CCC(=O)NC5=O)C6=O)CC4)sc23)cc(OC)c1CN(C)C (centres unmarked) [Compound D69] |
| < 0.01 µM | – | COc1cc(-c2cn(C)c(=O)c3cc(C(=O)N[C@H]4CCN(C5CCN(c6ccc7c(c6)C(=O)N([C@@H]6CCC(=O)NC6=O)C7)CC5)CC4(F)F)sc23)cc(OC)c1CN(C)C [Compound D140] |
| < 0.01 µM | – | COc1cc(-c2cn(C)c(=O)c3ccsc23)cc(OC)c1CN1CCC(CN2CCC3(CC2)CC(Oc2ccc4c(c2)CN(C2CCC(=O)NC2=O)C4=O)C3)CC1 (centres unmarked) [Compound D220] |
| < 0.01 µM | – | COc1cc(-c2cn(C)c(=O)c3sccc23)cc(OC)c1CN1CCC2(CC1)CN(c1ccc3c(c1)C(=O)N(C1CCC(=O)NC1=O)C3)C2 (centres unmarked) [Compound D207] |
| < 0.01 µM | – | COc1cc(-c2cn(C)c(=O)c3cc(C)sc23)cc(OC)c1CN1CCC(CN2CCC3(CC2)CN(c2ccc4c(c2)C(=O)N(C2CCC(=O)NC2=O)C4=O)C3)CC1 (centres unmarked) [Compound D184] |
| < 0.01 µM | – | COc1cc(-c2cn(C)c(=O)c3cc(C(=O)NC4CCN(c5ccc6c(c5)C(=O)N(C5CCC(=O)NC5=O)C6)C4)sc23)cc(OC)c1CN(C)C (centres unmarked) [Compound D114] |
| < 0.01 µM | – | COc1cc(-c2cn(C)c(=O)c3ocnc23)cc(OC)c1CN1CCC2(CC1)CN(c1ccc3c(c1)C(=O)N(C1CCC(=O)NC1=O)C3)C2 (centres unmarked) [Compound D217] |
| < 0.01 µM | – | CNC(=O)c1cc2c(=O)n(C)cc(-c3cc(OC)c(CN4CCC5(CC4)CN(c4ccc6c(c4)C(=O)N(C4CCC(=O)NC4=O)C6)C5)c(OC)c3)c2s1 (centres unmarked) [Compound D138] |
| < 0.01 µM | – | COc1cc(-c2cn(C)c(=O)c3ccsc23)cc(OC)c1CN1CCC2(CC1)CN(c1ccc3c(c1)CN(C1CCC(=O)NC1=O)C3=O)C2 (centres unmarked) [Compound D178] |
| – | > 0.01 µM | COc1cc(-c2cn(C)c(=O)c3cc(C(=O)NCC4CC5(CCN(C(=O)CCN6CCN(c7ccc8c(c7)C(=O)N(C7CCC(=O)NC7=O)C8=O)CC6)CC5)CO4)sc23)cc(OC)c1CN(C)C (centres unmarked) [Compound D48] |
| < 0.01 µM | – | COc1cc(-c2cn(C)c(=O)c3cc(C(=O)N[C@@H]4CCN(C5CCN(c6ccc7c(c6)C(=O)N(C6CCC(=O)NC6=O)C7)CC5)CC4(F)F)sc23)cc(OC)c1CN(C)C (some centres unmarked) [Compound D162] |
| – | < 0.01 µM | COc1cc(-c2cn(C)c(=O)c3cc(C(=O)NC4CC5(C4)CN(C(=O)CCN4CCN(c6ccc7c(c6)C(=O)N(C6CCC(=O)NC6=O)C7=O)CC4)C5)sc23)cc(OC)c1CN(C)C (centres unmarked) [Compound D74] |
| < 0.01 µM | – | COc1cc(-c2cn(C)c(=O)c3ccsc23)cc(OC)c1CN1CCN(c2ccc3c(c2)C(=O)N(C2CCC(=O)NC2=O)C3)CC12CCC2 (centres unmarked) [Compound D176] |
| – | > 0.01 µM | COc1cc(-c2cn(C)c(=O)c3cc(C(=O)NCC4CC45CCN(C(=O)CCN4CCN(c6ccc7c(c6)C(=O)N(C6CCC(=O)NC6=O)C7=O)CC4)CC5)sc23)cc(OC)c1CN(C)C (centres unmarked) [Compound D67] |
| < 0.01 µM | – | COc1cc(-c2cn(C)c(=O)c3cc(C(=O)NC4CN(c5ccc6c(c5)C(=O)N(C5CCC(=O)NC5=O)C6)CC4(F)F)sc23)cc(OC)c1CN(C)C (centres unmarked) [Compound D177] |
